Laboratory results as given in PubChem BioAssay (NCI).
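How tested: cells in 96-well plates exposed to compound for 48 hours at five concentrations. Here, GI50 denotes the concentration required for 50% inhibition of growth. TGI: concentration producing complete growth inhibition.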

Key:
Assay in all cases: growth of human tumour cells (NCI), 48 h
[1] = test system: M14 melanoma
[2] = test system: HCT-15 colon
[3] = test system: HCT-116 colon
[4] = test system: A498 renal
[5] = test system: K-562 leukemia
[6] = test system: RXF 393 renal
[7] = test system: LOX IMVI melanoma
[8] = test system: ACHN renal
[9] = test system: MALME-3M melanoma
[10] = test system: MOLT-4 leukemia
[11] = test system: OVCAR-3 ovarian
[12] = test system: NCI-H522 lung
[13] = test system: NCI-H460 lung
[14] = test system: T-47D breast
[15] = test system: PC-3 prostate
[16] = test system: SNB-19 CNS
[17] = test system: SN12C renal
[18] = test system: SK-OV-3 ovarian
[19] = test system: SK-MEL-28 melanoma
[20] = test system: SF-539 CNS
[21] = test system: A549 NSCLC
[22] = test system: BT-549 breast
[23] = test system: UO-31 renal
[24] = test system: RPMI-8226 leukemia
[25] = test system: HT29 colon
[26] = test system: U251 CNS
[27] = test system: SF-295 CNS
[28] = test system: HL-60(TB) leukemia
[29] = test system: SNB-75 CNS
[30] = test system: MDA-MB-435
[31] = test system: COLO 205 colon
[32] = test system: CAKI-1 renal
[33] = test system: 786-0 renal
[34] = test system: MCF7 breast
[35] = test system: EKVX NSCLC
[36] = test system: SR leukemia
[37] = test system: DU-145 prostate
[38] = test system: HCC-2998 colon
[39] = test system: CCRF-CEM leukemia
[40] = test system: IGROV1 ovarian
[41] = test system: HS 578T breast
[42] = test system: HOP-62 NSCLC
[43] = test system: OVCAR-8 ovarian
[44] = test system: KM12 colon
[45] = test system: SF-268 CNS
[46] = test system: MDA-MB-468 breast
[47] = test system: UACC-257 melanoma
[48] = test system: UACC-62 melanoma
[49] = test system: TK-10 renal
[50] = test system: HOP-92 NSCLC
[51] = test system: NCI-H23 lung
[52] = test system: OVCAR-5 ovarian
[53] = test system: NCI-H226 lung
[54] = test system: MDA-MB-231 breast
[55] = test system: SW-620 colon
[56] = test system: OVCAR-4 ovarian
[57] = test system: SK-MEL-5 melanoma
[58] = test system: SK-MEL-2 melanoma

O=C([Se]C1C=CCCC1)c1ccc(C(=O)[Se]C2C=CCCC2)s1 (stereo unspecified)
GI50 [1]: 2.02 µM | TGI [1]: 4.56 µM | GI50 [2]: 3.1 µM | TGI [2]: 11.6 µM | GI50 [3]: 2.87 µM | TGI [3]: 8.75 µM | GI50 [4]: 2.47 µM | TGI [4]: 7.29 µM | GI50 [5]: 3.96 µM | TGI [5]: 49.7 µM | GI50 [6]: 2.37 µM | TGI [6]: 5.69 µM | GI50 [7]: 2.71 µM | TGI [7]: 8.88 µM | GI50 [8]: 2.32 µM | TGI [8]: 5.58 µM | GI50 [9]: 2.27 µM | TGI [9]: 5.52 µM | GI50 [10]: 2.89 µM | TGI [10]: 8.34 µM | GI50 [11]: 2.13 µM | TGI [11]: 4.7 µM | GI50 [12]: 1.71 µM | TGI [12]: 3.32 µM | GI50 [13]: 1.43 µM | TGI [13]: 10.1 µM | GI50 [14]: 2.17 µM | TGI [14]: 5.19 µM | GI50 [15]: 1.95 µM | TGI [15]: 5.95 µM | GI50 [16]: 1.35 µM | TGI [16]: 3.56 µM | GI50 [17]: 2.05 µM | TGI [17]: 4.34 µM | GI50 [18]: 2.33 µM | TGI [18]: 5.33 µM | GI50 [19]: 3.11 µM | TGI [19]: 11.6 µM | GI50 [20]: 1.82 µM | TGI [20]: 3.23 µM | GI50 [21]: 3.09 µM | TGI [21]: 18.7 µM | GI50 [22]: 3.55 µM | TGI [22]: 11.7 µM | GI50 [23]: 1.73 µM | TGI [23]: 3.38 µM | GI50 [24]: 2.53 µM | TGI [24]: 6.53 µM | GI50 [25]: 4.01 µM | TGI [25]: 25.7 µM | GI50 [26]: 1.94 µM | TGI [26]: 4.47 µM | GI50 [27]: 0.366 µM | TGI [27]: 1.64 µM | GI50 [28]: 1.94 µM | TGI [28]: 4.81 µM | GI50 [29]: 1.38 µM | TGI [29]: 2.94 µM | GI50 [30]: 6.42 µM | TGI [30]: 23.1 µM | GI50 [31]: 2.42 µM | TGI [31]: 7.25 µM | GI50 [32]: 2.93 µM | TGI [32]: 10.2 µM | GI50 [33]: 2.02 µM | TGI [33]: 4.08 µM | GI50 [34]: 2.79 µM | TGI [34]: 10.6 µM | GI50 [35]: 2.01 µM | TGI [35]: 4.7 µM | GI50 [36]: 2.26 µM | TGI [36]: 5.53 µM | GI50 [37]: 3.48 µM | TGI [37]: 11.5 µM | GI50 [38]: 2.49 µM | TGI [38]: 6.19 µM | GI50 [39]: 2.68 µM | TGI [39]: 8.66 µM | GI50 [40]: 1.81 µM | TGI [40]: 3.48 µM | GI50 [41]: 2.36 µM | TGI [41]: 6.69 µM | GI50 [42]: 1.17 µM | TGI [42]: 6.65 µM | GI50 [43]: 1.79 µM | TGI [43]: 3.47 µM | GI50 [44]: 2.76 µM | TGI [44]: 7.08 µM | GI50 [45]: 3.34 µM | TGI [45]: 16.9 µM | GI50 [46]: 2.13 µM | TGI [46]: 5.18 µM | GI50 [47]: 2.44 µM | TGI [47]: 6.89 µM | GI50 [48]: 1.92 µM | TGI [48]: 4.2 µM | GI50 [49]: 1.87 µM | TGI [49]: 3.88 µM | GI50 [50]: 2.85 µM | TGI [50]: 11 µM | GI50 [51]: 1.95 µM | TGI [51]: 4.18 µM | GI50 [52]: 2.07 µM | TGI [52]: 4.75 µM | GI50 [53]: 3.42 µM | TGI [53]: 15.2 µM | GI50 [54]: 2.02 µM | TGI [54]: 4.16 µM | GI50 [55]: 2.32 µM | TGI [55]: 6.01 µM | GI50 [56]: 2.19 µM | TGI [56]: 4.98 µM | GI50 [57]: 1.83 µM | TGI [57]: 3.99 µM | GI50 [58]: 1.77 µM | TGI [58]: 3.71 µM
